In patent publication US20080221128A1, “Metalloprotease inhibitors containing a squaramide moiety” (priority 2007, published 2008):
Read-outs that look alike come from different tables or passages of the source.

Legend:
Assay type in all cases: biochemical
MMP-8 = target: T1, MMP-8 (Homo sapiens, UniProt P22894); test: Assay for determining MMP-8 inhibition (fluorescent substrate); settings: activated MMP-8 enzyme; upper bound class
T1 construct: purchased Calbiochem 444229
Experimental: The typical assay for MMP-8 activity is carried out in assay buffer comprised of 50 mM Tris, pH 7.5, 150 mM NaCl, 5 mM CaCl2 and 0.05% Brij-35. Different concentrations of tested compounds are prepared in assay buffer in 50 μL aliquots. 10 μL of a 50 nM stock solution of activated MMP-8 enzyme (Calbiochem, Cat. No. 444229) is added to the compound solution. The mixture of enzyme and compound in assay buffer is thoroughly mixed and incubated for 10 min at 37° C. Upon the completion of incubation, the assay is started by addition of 40 μL of a 10 μM stock solution of OmniMMP fluorescent substrate (Biomol, Cat. No. P-126). The time-dependent increase in fluorescence is measured at the 320 nm excitation and 390 nm emission by an automatic plate multireader at 37° C. The IC50 values are calculated from the initial reaction rates.

MMP-13 = target: T2, MMP-13 (Homo sapiens, UniProt P45452); test: Assay for determining MMP-13 inhibition (fluorescent substrate); settings: catalytic domain of MMP-13
T2 construct: stock solution of catalytic domain of MMP-13 enzyme (produced by Alantos or commercially available from Invitek (Berlin), Cat.# 30100812); purchased Invitek (Berlin) 30100812
Experimental: The typical assay for MMP-13 activity is carried out in assay buffer comprised of 50 mM Tris, pH 7.5, 150 mM NaCl, 5 mM CaCl2 and 0.05% Brij-35. Different concentrations of tested compounds are prepared in assay buffer in 50 μL aliquots. 10 μL of a 50 nM stock solution of catalytic domain of MMP-13 enzyme (produced by Alantos or commercially available from Invitek (Berlin), Cat.# 30100812) is added to the compound solution. The mixture of enzyme and compound in assay buffer is thoroughly mixed and incubated for 10 min at room temperature. Upon the completion of incubation, the assay is started by addition of 40 μL of a 12.5 μM stock solution of MMP-13 fluorescent substrate (Calbiochem, Cat. No. 444235). The time-dependent increase in fluorescence is measured at the 320 nm excitation and 390 nm emission by automatic plate multireader. The IC50 values are calculated from the initial reaction rates.

MMP-3 = target: T3, MMP-3 (Homo sapiens, UniProt P08254); test: Assay for determining MMP-3 inhibition (fluorescent substrate); settings: catalytic domain of MMP-3
T3 construct: stock solution of the catalytic domain of MMP-3 enzyme (Biomol, Cat. No. SE-109); purchased Biomol SE-109
Experimental: The typical assay for MMP-3 activity is carried out in assay buffer comprised of 50 mM MES, pH 6.0, 10 mM CaCl2 and 0.05% Brij-35. Different concentrations of tested compounds are prepared in assay buffer in 50 μL aliquots. 10 μL of a […] stock solution of the catalytic domain of MMP-3 enzyme (Biomol, Cat. No. SE-109) is added to the compound solution. The mixture of enzyme and compound in assay buffer is thoroughly mixed and incubated for 10 min at room temperature. Upon the completion of incubation, the assay is started by addition of 40 μL of a 12.5 μM stock solution of NFF-3 fluorescent substrate (Calbiochem, Cat. No. 480-455). The time-dependent increase in fluorescence is measured at the 330 nm excitation and 390 nm emission by an automatic plate multireader. The IC50 values are calculated from the initial reaction rates.

[1] = upper bound class, read-out: MMP-13 inhibition activity (IC50 MMP-13)
[2] = upper bound class, read-out: MMP-3 inhibition activity (IC50 MMP-3)

T3 sequence (P08254 100-272 limits assumed): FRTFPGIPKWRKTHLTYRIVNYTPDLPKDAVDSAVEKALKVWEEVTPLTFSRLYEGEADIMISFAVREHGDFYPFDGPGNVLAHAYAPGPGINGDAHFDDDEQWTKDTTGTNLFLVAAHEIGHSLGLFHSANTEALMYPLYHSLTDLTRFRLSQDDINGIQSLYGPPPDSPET
T1 sequence (P22894 101-467): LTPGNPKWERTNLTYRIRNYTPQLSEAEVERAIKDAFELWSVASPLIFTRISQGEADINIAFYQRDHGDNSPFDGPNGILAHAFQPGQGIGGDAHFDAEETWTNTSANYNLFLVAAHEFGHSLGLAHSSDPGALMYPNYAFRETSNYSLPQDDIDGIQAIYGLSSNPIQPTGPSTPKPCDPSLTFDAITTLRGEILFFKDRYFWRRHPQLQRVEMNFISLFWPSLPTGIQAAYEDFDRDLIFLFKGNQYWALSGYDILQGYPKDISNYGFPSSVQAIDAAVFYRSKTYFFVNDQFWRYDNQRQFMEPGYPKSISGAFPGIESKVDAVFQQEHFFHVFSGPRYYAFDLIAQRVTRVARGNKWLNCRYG

SMILES | IC50 (MMP-8) [nM] | IC50 (MMP-13; [1]) [nM] | IC50 (MMP-3; [2]) [nM] | IC50 (MMP-13; range bounds printed with own units (nM to μM), read-out: MMP-13 inhibition activity (IC50 MMP-13), range) [nM] | IC50 (MMP-3; range bounds printed with own units (nM to μM), read-out: MMP-3 inhibition activity (IC50 MMP-3), range) [nM]
Nc1c(N2CCc3ccc(CNC(=O)c4nc5sc6c(c5c(=O)[nH]4)CCC4(C6)OCCO4)cc3C2)c(=O)c1=O [1/8] | < 250 | < 100 | < 250 |  | 
Cc1nc(C(=O)NCc2ccc3c(c2)CN(c2c(N)c(=O)c2=O)CC3)[nH]c(=O)c1C [Example 1/2] |  | < 100 |  |  | 
Cc1csc2nc(C(=O)NCc3ccc4c(c3)CN(c3c(N)c(=O)c3=O)CC4)[nH]c(=O)c12 [Example 1/3] | < 250 | < 100 | < 250 |  | 
Nc1c(N2CCc3ccc(CNC(=O)c4ncc(-c5ccc(F)cc5)c(=O)[nH]4)cc3C2)c(=O)c1=O [Example 1] |  |  |  | 100 to 20000 | 250 to 20000
